Format in all cases: ADME, organism-based
Data set [1] has as its system Homo sapiens. Description: Distributional clearance in patient with community or hospital-acquired pneumonia at […], iv loading dose followed by […] administered every 12 hrs. The conditions noted are these: in vivo.
For data set [2], the system named is Homo sapiens. Description: Volume of distribution at steady state in patient with community or hospital-acquired pneumonia at […], iv loading dose followed by […] administered every 12 hrs. The conditions noted are these: in vivo.
Data set [3] is described as follows: Clearance in patient with community or hospital-acquired pneumonia at […], iv loading dose followed by […] administered every 12 hrs. The following applies: human, in vivo.
Data set [4] is described as follows: Volume of distribution in central compartment in patient with community or hospital-acquired pneumonia at […], iv loading dose followed by […] administered every 12 hrs. The following applies: human, in vivo, read-out: Vc.

The structures appear in SMILES notation.

One may read the Vdss as a proportionality between amount in the body and measured concentration, not a real space. For orientation: clearance means the rate of elimination divided by the concentration. Higher therefore signals efficient removal. For `CN(C)c1cc(NC(=O)CNC(C)(C)C)c(O)c2c1C[C@H]1C[C@H]3[C@H](N(C)C)C(O)=C(C(N)=O)C(=O)[C@@]3(O)C(O)=C1C2=O` [TIGECYCLINE], in the data set on Homo sapiens [1], the CLd was found to be 85.1 L/h. For the same molecule, the Vdss in the data set with Homo sapiens [2] worked out at 398 L. Besides, in data set [3], the clearance is 320 mL/min. Also, the Vd in data set [4] stood at 65.2 L.
